Measured values taken from US20130066055A1, “NEW BINDER-DRUG CONJUGATES (ADCS) AND USE THEREOF” (Bayer Intellectual Property GmbH, priority 2011, published 2013).
“And” between values parts separate entries of the source, which are not always exact repeats. Identical values can stand only once. Counter-ions that a name gives are not always drawn. Square brackets hold non-standard residues; d marks the D form. Peptide text beside a SMILES is read from it. * marks the point of attachment. X2 = CC(C)[C@@H](C(=O)*)N(C)CCCCCCN1C(=O)CC(SC[C@H](N)C(=O)O)C1=O; X3 = CC(C)[C@@H](C(=O)*)N(C)CCOCCOCCOCCC(=O)NCCCC[C@H](N)C(=O)O; X4 = C[C@@H](O)[C@@H](C(=O)*)N(C)CCCCCC(=O)NCCCC[C@H](N)C(=O)O; X1 = CC(C)[C@@H](C(=O)*)N(C)CCCCCC(=O)NCCCC[C@H](N)C(=O)O; Dolaproine = CO[C@@H]([C@@H]1CCCN1)[C@@H](C)C(=O)O; Dil = CC[C@H](C)[C@H](NC)[C@@H](CC(=O)O)OC; Oxazinan2yl(1,2) = C1CCN(*)OC1

What was measured:
[1] = Caco-2 flux assay for cell permeability; format: in vitro ADME; conditions: human, Caco-2 cells, basal to apical
Protocol: The cell permeability of a substance can be investigated by means of in vitro testing in a flux assay using Caco-2 cells [M. D. Troutman and D. R. Thakker, Pharm. Res. 20 (8), 1210-1224 (2003)]. For this purpose, the cells were cultured for 15-16 days on 24-well filter plates. For the determination of permeation, the respective working example was applied in a HEPES buffer to the cells either apically (A) or basally (B) and incubated for 2 hours. After 0 hours and after 2 hours, samples were taken from the cis and trans compartments. The samples were separated by HPLC (Agilent 1200, Böblingen, Germany) using reverse phase columns. The HPLC system was coupled via a Turbo Ion Spray Interface to a Triple Quadropol mass spectrometer API 4000 (Applied Biosystems Applera, Darmstadt, Germany). The permeability was evaluated on the basis of a Papp value, which was calculated using the formula published by Schwab et al. [D. Schwab et al., J. Med. Chem. 46, 1716-1725 (2003)].

[2] = biological target: T1, P-glycoprotein (P-gp, ABCB1) (Homo sapiens, UniProt P08183); test: Flux assay in P-gp overexpressing L-MDR1 cells; format: in vitro ADME; conditions: LLC-PK1, basal to apical
T1 construct: expressed in transfected cells; host or cells: LLC-PK1 (pig kidney) cells transfected with human MDR1 (L-MDR1 cells)
Protocol: The substrate properties of a substance for P-gp (ABCB1) were determined by means of a flux assay using LLC-PK1 cells which overexpress P-gp (L-MDR1 cells) [A. H. Schinkel et al., J. Clin. Invest. 96, 1698-1705 (1995)]. For this purpose, the LLC-PK1 cells or L-MDR1 cells were cultured on 96-well filter plates for 3-4 days. For determination of the permeation, the respective test substance, alone or in the presence of an inhibitor (such as Ivermectin or Verapamil, for example), was applied in a HEPES buffer to the cells either apically (A) or basally (B) and incubated for 2 hours. After 0 hours and after 2 hours, samples were taken from the cis and trans compartments. The samples were separated by HPLC using reverse phase columns. The HPLC system was coupled via a Turbo Ion Spray Interface to a Triple Quadropol mass spectrometer API 3000 (Applied Biosystems Applera, Darmstadt, Germany). The permeability was evaluated on the basis of a Papp value which was calculated using the formula published by Schwab et al. [D. Schwab et al., J. Med. Chem. 46, 1716-1725 (2003)].

[3] = system: tubulin; test: Fluorescence-based microtubule (tubulin) polymerization assay; format: biochemical
Protocol: Tubulin polymerization was investigated using the “Fluorescence-based Microtubule Polymerisation Assay Kit” from Cytoskeleton (Denver, Colo., USA; order number: BK011). With this assay, GTP is added to unpolymerized tubulin, allowing polymerization to take place spontaneously. The assay is based on the binding of the fluorophore 4′,6-di-amidino-2-phenylindole (DAPI) to tubulin. Free and bound DAPI can be differentiated on the basis of different emission spectra.
[…] In addition to the buffer control, paclitaxel, with a polymerization-increasing effect, and vinblastin, with a polymerization inhibiting effect, were run additionally as assay controls. Measurement was carried out using 96-well plates with a half base area. The kinetics of the tubulin polymerization were monitored in a Fluorimeter at 37° C. for 1 hour. The excitation wavelength was 355 nm, and emission was monitored at 460 nm. For the region of linear increase within the first 10 minutes, a calculation was made of the change in fluorescence per minute (ΔF/min), which represents the polymerization rate of the microtubuli. The potency of the test substances was quantified on the basis of their respective reduction of the polymerization rate.

T1 sequence (P08183 whole entry): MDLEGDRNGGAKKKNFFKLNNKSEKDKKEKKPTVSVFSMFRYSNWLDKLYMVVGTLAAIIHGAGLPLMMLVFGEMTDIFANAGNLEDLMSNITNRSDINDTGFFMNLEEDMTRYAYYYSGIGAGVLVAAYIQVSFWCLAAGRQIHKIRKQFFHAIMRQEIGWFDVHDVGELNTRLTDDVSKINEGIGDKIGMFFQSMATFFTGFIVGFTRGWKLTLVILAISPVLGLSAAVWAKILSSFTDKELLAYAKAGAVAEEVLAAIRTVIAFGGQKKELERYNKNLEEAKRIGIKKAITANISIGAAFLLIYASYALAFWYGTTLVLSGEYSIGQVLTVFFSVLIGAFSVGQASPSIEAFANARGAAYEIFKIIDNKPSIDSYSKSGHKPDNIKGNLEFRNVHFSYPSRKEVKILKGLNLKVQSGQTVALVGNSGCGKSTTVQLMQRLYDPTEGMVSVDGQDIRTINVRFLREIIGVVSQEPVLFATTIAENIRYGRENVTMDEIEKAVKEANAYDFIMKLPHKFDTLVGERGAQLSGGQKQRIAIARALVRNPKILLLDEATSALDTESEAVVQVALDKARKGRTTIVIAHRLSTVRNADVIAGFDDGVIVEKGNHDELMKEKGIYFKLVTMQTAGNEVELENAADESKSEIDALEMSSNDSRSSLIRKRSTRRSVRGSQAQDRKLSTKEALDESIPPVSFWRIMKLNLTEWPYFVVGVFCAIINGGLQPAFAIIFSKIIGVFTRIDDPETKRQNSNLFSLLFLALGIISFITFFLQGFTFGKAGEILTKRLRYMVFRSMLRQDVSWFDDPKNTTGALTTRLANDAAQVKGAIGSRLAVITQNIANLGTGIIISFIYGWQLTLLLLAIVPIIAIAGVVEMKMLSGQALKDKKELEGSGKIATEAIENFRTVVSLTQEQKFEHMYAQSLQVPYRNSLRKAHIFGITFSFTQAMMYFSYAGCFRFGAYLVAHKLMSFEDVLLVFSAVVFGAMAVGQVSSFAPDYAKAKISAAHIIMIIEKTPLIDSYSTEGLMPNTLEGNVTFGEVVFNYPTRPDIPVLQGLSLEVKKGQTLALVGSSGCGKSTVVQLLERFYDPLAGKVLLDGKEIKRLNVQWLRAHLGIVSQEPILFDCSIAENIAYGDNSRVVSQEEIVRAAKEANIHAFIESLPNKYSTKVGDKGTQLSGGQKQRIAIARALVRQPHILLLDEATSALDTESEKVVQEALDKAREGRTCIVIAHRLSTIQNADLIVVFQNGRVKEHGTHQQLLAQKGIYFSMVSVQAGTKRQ

Row | Structure (SMILES) | Papp B→A at 2 h [1] | Papp B→A at 2 h [2] | Tubulin polymerization in the presence of toxophore in [%]. Tubulin polymerization rate at 1 μM MMAF set at 100% ([3]; toxophore 1 μM) | Tubulin polymerization in the presence of toxophore in [%]. Tubulin polymerization rate at 1 μM MMAF set at 100% ([3]; toxophore 10 μM)
1 | CC[C@H](C)[C@@H]([C@@H](CC(=O)N1CCC[C@H]1[C@H](OC)[C@@H](C)C(=O)N[C@@H](Cc1c[nH]c2ccccc12)C(=O)N1CCCCO1)OC)N(C)C(=O)[C@@H](NC(=O)[C@H]([C@@H](C)O)N(C)CCCCCC(=O)NCCCC[C@H](N)C(=O)O)C(C)C [Example 126, N-(6-{[(5S)-5-Amino-5-carboxypentyl]amino}-6-oxohexyl)-N-methyl-L-threonyl-N-[(3R,4S,5S)-1-{(2S)-2-[(1R,2R)-3-{[(2S)-3-(1H-indol-3-yl)-1-(1,2-oxazinan-2-yl)-1-oxopropan-2-yl]amino}-1-methoxy-2-methyl-3-oxopropyl]pyrrolidin-1-yl}-3-methoxy-5-methyl-1-oxoheptan-4-yl]-N-methyl-L-valinamide trifluoroacetate] (X4-V[Dil][Dolaproine]W-{Oxazinan2yl(1,2)}) | 0.18 ×10⁻⁶ cm/s | – | – | –
2 | CC[C@H](C)[C@@H]([C@@H](CC(=O)N1CCC[C@H]1[C@H](OC)[C@@H](C)C(=O)N[C@@H](Cc1c[nH]c2ccccc12)C(=O)O)OC)N(C)C(=O)[C@@H](NC(=O)[C@H](C(C)C)N(C)CCCCCCN1C(=O)CC(SC[C@H](N)C(=O)O)C1=O)C(C)C (stereo partly drawn) [Example 75, N-[6-(3-{[(2R)-2-Amino-2-carboxyethyl]sulphanyl}-2,5-dioxopyrrolidin-1-yl)hexyl]-N-methyl-L-valyl-N-[(3R,4S,5S)-1-{(2S)-2-[(1R,2R)-3-{[(1S)-1-carboxy-2-(1H-indol-3-yl)ethyl]amino}-1-methoxy-2-methyl-3-oxopropyl]pyrrolidin-1-yl}-3-methoxy-5-methyl-1-oxoheptan-4-yl]-N-methyl-L-valinamide] (X2-V[Dil][Dolaproine]W-OH) | 0.1 ×10⁻⁶ cm/s | 0.4 ×10⁻⁶ cm/s | 107% | 25%
3 | CC[C@H](C)[C@@H]([C@@H](CC(=O)N1CCC[C@H]1[C@H](OC)[C@@H](C)C(=O)N[C@@H](Cc1ccc(O)cc1)C(=O)N1CCCCO1)OC)N(C)C(=O)[C@@H](NC(=O)[C@H](C(C)C)N(C)CCCCCC(=O)NCCCC[C@H](N)C(=O)O)C(C)C [Example 127, N-(6-{[(5S)-5-Amino-5-carboxypentyl]amino}-6-oxohexyl)-N-methyl-L-valyl-N-[(3R,4S,5S)-1-{(2S)-2-[(1R,2R)-3-{[(2S)-3-(4-hydroxyphenyl)-1-(1,2-oxazinan-2-yl)-1-oxopropan-2-yl]amino}-1-methoxy-2-methyl-3-oxopropyl]pyrrolidin-1-yl}-3-methoxy-5-methyl-1-oxoheptan-4-yl]-N-methyl-L-valinamide trifluoroacetate] (X1-V[Dil][Dolaproine]Y-{Oxazinan2yl(1,2)}) | 0.15 ×10⁻⁶ cm/s | – | – | –
4 | CC[C@H](C)[C@@H]([C@@H](CC(=O)N1CCC[C@H]1[C@H](OC)[C@@H](C)C(=O)N[C@@H](Cc1ccccc1)C(=O)NCc1ccccc1)OC)N(C)C(=O)[C@@H](NC(=O)[C@H](C(C)C)N(C)CCCC(=O)NNC(=O)CCCCCN1C(=O)CC(SC[C@H](N)C(=O)O)C1=O)C(C)C (stereo partly drawn) [Example 78, N-(4-{2-[6-(3-{[(2R)-2-Amino-2-carboxyethyl]sulphanyl}-2,5-dioxopyrrolidin-1-yl)hexanoyl]hydrazino}-4-oxobutyl)-N-methyl-L-valyl-N-[(3R,4S,5S)-1-{(2S)-2-[(1R,2R)-3-{[(2S)-1-(benzylamino)-1-oxo-3-phenylpropan-2-yl]amino}-1-methoxy-2-methyl-3-oxopropyl]pyrrolidin-1-yl}-3-methoxy-5-methyl-1-oxoheptan-4-yl]-N-methyl-L-valinamide] | – | – | 110% | –
5 | CC[C@H](C)[C@@H]([C@@H](CC(=O)N1CCC[C@H]1[C@H](OC)[C@@H](C)C(=O)N[C@@H](Cc1c[nH]c2ccccc12)C(=O)O)OC)N(C)C(=O)[C@@H](NC(=O)[C@H](C(C)C)N(C)CCCC(=O)NNC(=O)CCCCCN1C(=O)CC(SC[C@H](N)C(=O)O)C1=O)C(C)C (stereo partly drawn) [Example 72, N-(4-{2-[6-(3-{[(2R)-2-Amino-2-carboxyethyl]sulphanyl}-2,5-dioxopyrrolidin-1-yl)hexanoyl]hydrazino}-4-oxobutyl)-N-methyl-L-valyl-N-[(3R,4S,5S)-1-{(2S)-2-[(1R,2R)-3-{[(1S)-1-carboxy-2-(1H-indol-3-yl)ethyl]amino}-1-methoxy-2-methyl-3-oxopropyl]pyrrolidin-1-yl}-3-methoxy-5-methyl-1-oxoheptan-4-yl]-N-methyl-L-valinamide] | 0.16 ×10⁻⁶ cm/s | 0.36 ×10⁻⁶ cm/s | 109% | 27%
6 | CC[C@H](C)[C@@H]([C@@H](CC(=O)N1CCC[C@H]1[C@H](OC)[C@@H](C)C(=O)N[C@@H](Cc1c[nH]c2ccccc12)C(=O)N1CCCCO1)OC)N(C)C(=O)[C@@H](NC(=O)[C@H](C(C)C)N(C)CCOCCOCCOCCC(=O)NCCCC[C@H](N)C(=O)O)C(C)C [Example 117, N-[(18S)-[8-Amino-18-carboxy-12-oxo-3,6,9-trioxa-13-azaoctadec-1-yl]-N-methyl-L-valyl-N-[(3R,4S,5S)-1-{(2S)-2-[(1R,2R)-3-{[(2S)-3-(1H-indol-3-yl)-1-(1,2-oxazinan-2-yl)-1-oxopropan-2-yl]amino}-1-methoxy-2-methyl-3-oxopropyl]pyrrolidin-1-yl}-3-methoxy-5-methyl-1-oxoheptan-4-yl]-N-methyl-L-valinamide trifluoroacetate] (X3-V[Dil][Dolaproine]W-{Oxazinan2yl(1,2)}) | – | – | 60% and 78% | –
7 | CC[C@H](C)[C@@H]([C@@H](CC(=O)N1CCC[C@H]1[C@H](OC)[C@@H](C)C(=O)N[C@@H](Cc1c[nH]c2ccccc12)C(=O)O)OC)N(C)C(=O)[C@@H](NC(=O)[C@H](C(C)C)N(C)CCCCCC(=O)NCCCC[C@H](N)C(=O)O)C(C)C [Example 116, N-(6-{[(5S)-5-Amino-5-carboxypentyl]amino}-6-oxohexyl)-N-methyl-L-valyl-N-[(3R,4S,5S)-1-{(2S)-2-[(1R,2R)-3-{[(1S)-1-carboxy-2-(1H-indol-3-yl)ethyl]amino}-1-methoxy-2-methyl-3-oxopropyl]pyrrolidin-1-yl}-3-methoxy-5-methyl-1-oxoheptan-4-yl]-N-methyl-L-valinamide] (X1-V[Dil][Dolaproine]W-OH) | 0.1 ×10⁻⁶ cm/s | 0.4 ×10⁻⁶ cm/s | 80% | 14%
8 | CC[C@H](C)[C@@H]([C@@H](CC(=O)N1CCC[C@H]1[C@H](OC)[C@@H](C)C(=O)N[C@@H](Cc1c[nH]c2ccccc12)C(=O)N1CCCCO1)OC)N(C)C(=O)[C@@H](NC(=O)[C@H](C(C)C)N(C)CCCCCCN1C(=O)CC(SC[C@H](N)C(=O)O)C1=O)C(C)C (stereo partly drawn) [Example 76, N-[6-(3-{[(2R)-2-Amino-2-carboxyethyl]sulphanyl}-2,5-dioxopyrrolidin-1-yl)hexyl]-N-methyl-L-valyl-N-[(3R,4S,5S)-1-{(2S)-2-[(1R,2R)-3-{[(2S)-3-(1H-indol-3-yl)-1-(1,2-oxazinan-2-yl)-1-oxopropan-2-yl]amino}-1-methoxy-2-methyl-3-oxopropyl]pyrrolidin-1-yl}-3-methoxy-5-methyl-1-oxoheptan-4-yl]-N-methyl-L-valinamide] (X2-V[Dil][Dolaproine]W-{Oxazinan2yl(1,2)}) | – | – | 121% | 35%
